Experimental data as given in patent US6683027B2, “Herbicidal mixtures” (BASF Aktienegesellschaft, priority 2000, dated 2004).

Tests used:
Type in all cases: in vivo
Apera spica-venti = experiment: greenhouse post-emergence trial, percent damage vs untreated control 21 days after treatment; details: APESV; for cinidon-ethyl alone (% control): Example 10; for clodinafop alone (% control): Example 12; for mecoprop alone (% control): Example 7; for pendimethalin alone (% control): Example 14
Protocol: (§1) The trials are carried out under greenhouse conditions in pre- and post-emergence applications. The plant seeds are sown in pots containing a loamy sand soil (0.5 l). The herbicides are applied as single treatments, or in a combination comprising a compound of formula I and compound selected from group (2) as defined above, before or after emergence of weeds and crop. The herbicidal performance is assessed as percent damage in comparison to the untreated control plants. The assessment is done 21 days after the treatment. Wheat and barley are treated at the 3-4 leaf stage, the broad-leaf weeds at the 2-4 leaf stage and annual grasses at the 2-3 leaf stage.

Galium aparine [1] = experiment: as above; details: GALAP; for clodinafop alone (% control): Example 12; for flupyrsulfuron alone (% control): Example 5
Protocol: as §1

Matricaria inodora = experiment: as above; details: MATIN; for cinidon-ethyl alone (% control): Example 10; for carfentrazone alone (% control): Example 9
Protocol: as §1

Setaria viridis [2] = experiment: as above; details: SETVI; for cinidon-ethyl alone (% control): Example 10; for IPU alone (% control): Example 1B; for MCPA alone (% control): Example 4; for flupyrsulfuron alone (% control): Example 5; for carfentrazone alone (% control): Example 9
Protocol: as §1

Lamium purpureum [3] = experiment: as above; details: LAMPU; for ioxynil alone (% control): Example 8; for clodinafop alone (% control): Example 12; for mecoprop alone (% control): Example 7; for MCPA alone (% control): Example 4
Protocol: as §1

Lolium perenne [4] = experiment: as above; details: LOLPE; for mecoprop alone (% control): Example 7; for MCPA alone (% control): Example 4; for fenoxaprop alone (% control): Example 13
Protocol: as §1

Alopecurus myosuroides [5] = experiment: as above; details: ALOMY; for IPU alone (% control): Example 1B; for MCPA alone (% control): Example 4; for flupyrsulfuron alone (% control): Example 5; for fenoxaprop alone (% control): Example 13; for pendimethalin alone (% control): Example 14
Protocol: as §1

Alopecurus myosuroides [6] = experiment: greenhouse pre-emergence trial, percent damage vs untreated control 21 days after treatment; details: ALOMY; for JV 485 alone (% control): Example 3
Lamium purpureum [7] = experiment: as above; details: LAMPU, Example 1A
Lolium perenne [8] = experiment: as above; details: 60 g/ha, LOLPE, Example 1A
Papaver rhoeas [9] = experiment: as above; details: 60 g/ha, PAPRH, Example 1A
Setaria viridis [10] = experiment: as above; details: SETVI, Example 1A
Stellaria media [11] = experiment: as above; details: 60 g/ha, STEME, Example 1A
Veronica persica [12] = experiment: as above; details: VERPE, Example 1A
Galium aparine [13] = experiment: as above; details: GALAP; for JV 485 alone (% control): Example 3
Papaver rhoeas [14] = experiment: greenhouse post-emergence trial, percent damage vs untreated control 21 days after treatment; details: PAPRH, Example 1B
Protocol: as §1

Stellaria media [15] = experiment: as above; details: STEME; for fenoxaprop alone (% control): Example 13
Protocol: as §1

Veronica persica [16] = experiment: as above; details: VERPE, Example 1B
Protocol: as §1

## CCOC(=O)C(Cl)=Cc1cc(N2C(=O)C3=C(CCCC3)C2=O)ccc1Cl [cinidon-ethyl, reference compound]
Apera spica-venti; 25 g/ha
  cinidon-ethyl alone (% control): 0%
Apera spica-venti; 50 g/ha
  cinidon-ethyl alone (% control): 0%
Galium aparine [1]; 25 g/ha, Example 10
  cinidon-ethyl alone (% control): 20%
Matricaria inodora; 12.5 g/ha
  cinidon-ethyl alone (% control): 53%
Matricaria inodora; 25 g/ha
  cinidon-ethyl alone (% control): 68%
Setaria viridis [2]; 25 g/ha
  cinidon-ethyl alone (% control): 0%
Setaria viridis [2]; 50 g/ha
  cinidon-ethyl alone (% control): 0%

## N#Cc1cc(I)c(O)c(I)c1 [ioxynil]
Apera spica-venti; 120 g/ha, Example 8
  ioxynil alone (% control): 0%
Lamium purpureum [3]; 60 g/ha
  ioxynil alone (% control): 0%
Lamium purpureum [3]; 120 g/ha
  ioxynil alone (% control): 15%
Lamium purpureum [3]; 240 g/ha
  ioxynil alone (% control): 28%
Lolium perenne [4]; 240 g/ha, Example 8
  ioxynil alone (% control): 0%

## C[C@@H](Oc1ccc(Oc2ncc(Cl)cc2F)cc1)C(=O)O [clodinafop, reference compound]
Alopecurus myosuroides [5]; 7.5 g/ha, Example 12
  clodinafop alone (% control): 10%
Apera spica-venti; 15 g/ha
  clodinafop alone (% control): 0%
Apera spica-venti; 30 g/ha
  clodinafop alone (% control): 15%
Galium aparine [1]; 7.5 g/ha
  clodinafop alone (% control): 0%
Galium aparine [1]; 15 g/ha
  clodinafop alone (% control): 0%
Galium aparine [1]; 30 g/ha
  clodinafop alone (% control): 0%
Lamium purpureum [3]; 7.5 g/ha
  clodinafop alone (% control): 0%
Lamium purpureum [3]; 15 g/ha
  clodinafop alone (% control): 0%
Lolium perenne [4]; 15 g/ha, Example 12
  clodinafop alone (% control): 65%

## CC(C)c1ccc(NC(=O)N(C)C)cc1 [IPU]
Alopecurus myosuroides [6]; 60 g/ha, Example 1A
  IPU alone (% control): 43%
Lamium purpureum [7]; 60 g/ha
  IPU alone (% control): 0%
Lamium purpureum [7]; 120 g/ha
  IPU alone (% control): 15%
Lamium purpureum [7]; 240 g/ha
  IPU alone (% control): 70%
Lolium perenne [8]
  IPU alone (% control): 40%
Papaver rhoeas [9]
  IPU alone (% control): 0%
Setaria viridis [10]; 60 g/ha
  IPU alone (% control): 0%
Setaria viridis [10]; 120 g/ha
  IPU alone (% control): 20%
Setaria viridis [10]; 240 g/ha
  IPU alone (% control): 65%
Stellaria media [11]
  IPU alone (% control): 15%
Veronica persica [12]; 60 g/ha
  IPU alone (% control): 0%
Veronica persica [12]; 120 g/ha
  IPU alone (% control): 0%
Veronica persica [12]; 240 g/ha
  IPU alone (% control): 0%
Galium aparine [13]; 120 g/ha, Example 1A
  IPU alone (% control): 0%
Alopecurus myosuroides [5]; 60 g/ha
  IPU alone (% control): 15%
Alopecurus myosuroides [5]; 120 g/ha
  IPU alone (% control): 38%
Apera spica-venti; 60 g/ha, Example 1B
  IPU alone (% control): 50%
Lamium purpureum [3]; 60 g/ha, Example 1B
  IPU alone (% control): 0%
Lolium perenne [4]; 60 g/ha, Example 1B
  IPU alone (% control): 38%
Papaver rhoeas [14]; 60 g/ha
  IPU alone (% control): 0%
Papaver rhoeas [14]; 120 g/ha
  IPU alone (% control): 25%
Papaver rhoeas [14]; 240 g/ha
  IPU alone (% control): 48%
Setaria viridis [2]; 60 g/ha
  IPU alone (% control): 15%
Setaria viridis [2]; 120 g/ha
  IPU alone (% control): 40%
Stellaria media [15]; 60 g/ha, Example 1B
  IPU alone (% control): 25%
Veronica persica [16]; 60 g/ha
  IPU alone (% control): 15%
Veronica persica [16]; 240 g/ha
  IPU alone (% control): 5%

## Cc1cc(Cl)ccc1OC(C)C(=O)O (stereo not shown) [mecoprop, reference compound]
Apera spica-venti; 240 g/ha
  mecoprop alone (% control): 0%
Apera spica-venti; 480 g/ha
  mecoprop alone (% control): 0%
Apera spica-venti; 960 g/ha
  mecoprop alone (% control): 0%
Lamium purpureum [3]; 240 g/ha
  mecoprop alone (% control): 10%
Lamium purpureum [3]; 480 g/ha
  mecoprop alone (% control): 48%
Lolium perenne [4]; 240 g/ha
  mecoprop alone (% control): 0%
Lolium perenne [4]; 480 g/ha
  mecoprop alone (% control): 0%
Lolium perenne [4]; 960 g/ha
  mecoprop alone (% control): 0%

## CC(C)OC(=O)c1cc(-c2nn(C)c(C(F)(F)F)c2Br)c(F)cc1Cl [JV 485, isopropyl 2-chloro-4-fluoro-5-(4-bromo-1-methyl-6-trifluoromethyl-pyrazol-3-yl)-benzoate, reference compound]
Alopecurus myosuroides [6]; 30 g/ha
  JV 485 alone (% control): 10%
Alopecurus myosuroides [6]; 60 g/ha
  JV 485 alone (% control): 25%
Alopecurus myosuroides [6]; 120 g/ha
  JV 485 alone (% control): 65%
Galium aparine [13]; 60 g/ha
  JV 485 alone (% control): 0%
Galium aparine [13]; 120 g/ha
  JV 485 alone (% control): 63%

## Cc1cc(Cl)ccc1OCC(=O)O [MCPA, reference compound]
Alopecurus myosuroides [5]; 120 g/ha
  MCPA alone (% control): 0%
Alopecurus myosuroides [5]; 240 g/ha
  MCPA alone (% control): 0%
Alopecurus myosuroides [5]; 480 g/ha
  MCPA alone (% control): 0%
Apera spica-venti; 240 g/ha, Example 4
  MCPA alone (% control): 0%
Lamium purpureum [3]; 120 g/ha
  MCPA alone (% control): 0%
Lamium purpureum [3]; 240 g/ha
  MCPA alone (% control): 0%
Lamium purpureum [3]; 480 g/ha
  MCPA alone (% control): 13%
Lolium perenne [4]; 120 g/ha
  MCPA alone (% control): 0%
Lolium perenne [4]; 240 g/ha
  MCPA alone (% control): 10%
Setaria viridis [2]; 120 g/ha
  MCPA alone (% control): 25%
Setaria viridis [2]; 240 g/ha
  MCPA alone (% control): 43%
Stellaria media [15]; 480 g/ha, Example 4
  MCPA alone (% control): 65%

## CCS(=O)(=O)c1nc2ccccn2c1S(=O)(=O)NC(=O)Nc1nc(OC)cc(OC)n1 [sulfosulfuron, reference compound]
Lolium perenne [4]; 3.75 g/ha, Example 6
  sulfosulfuron alone (% control): 18%

## COc1cc(OC)nc(NC(=O)NS(=O)(=O)c2nc(C(F)(F)F)ccc2C(=O)O)n1 [flupyrsulfuron, reference compound]
Alopecurus myosuroides [5]; 2.5 g/ha
  flupyrsulfuron alone (% control): 35%
Alopecurus myosuroides [5]; 5 g/ha
  flupyrsulfuron alone (% control): 53%
Alopecurus myosuroides [5]; 10 g/ha
  flupyrsulfuron alone (% control): 73%
Apera spica-venti; 2.5 g/ha, Example 5
  flupyrsulfuron alone (% control): 0%
Galium aparine [1]; 5 g/ha
  flupyrsulfuron alone (% control): 0%
Galium aparine [1]; 10 g/ha
  flupyrsulfuron alone (% control): 0%
Lolium perenne [4]; 10 g/ha, Example 5
  flupyrsulfuron alone (% control): 10%
Setaria viridis [2]; 2.5 g/ha
  flupyrsulfuron alone (% control): 0%
Setaria viridis [2]; 5 g/ha
  flupyrsulfuron alone (% control): 10%
Setaria viridis [2]; 10 g/ha
  flupyrsulfuron alone (% control): 10%

## CC(Oc1ccc(Oc2nc3ccc(Cl)cc3o2)cc1)C(=O)O (stereo not shown) [fenoxaprop, reference compound]
Alopecurus myosuroides [5]; 15 g/ha
  fenoxaprop alone (% control): 0%
Alopecurus myosuroides [5]; 30 g/ha
  fenoxaprop alone (% control): 0%
Apera spica-venti; 30 g/ha, Example 13
  fenoxaprop alone (% control): 58%
Lolium perenne [4]; 15 g/ha
  fenoxaprop alone (% control): 3%
Lolium perenne [4]; 60 g/ha
  fenoxaprop alone (% control): 43%
Matricaria inodora; 30 g/ha, Example 13
  fenoxaprop alone (% control): 0%
Stellaria media [15]; 30 g/ha
  fenoxaprop alone (% control): 0%
Stellaria media [15]; 60 g/ha
  fenoxaprop alone (% control): 0%

## CCC(CC)Nc1c([N+](=O)[O-])cc(C)c(C)c1[N+](=O)[O-] [pendimethalin, reference compound]
Alopecurus myosuroides [5]; 120 g/ha
  pendimethalin alone (% control): 0%
Alopecurus myosuroides [5]; 240 g/ha
  pendimethalin alone (% control): 15%
Apera spica-venti; 120 g/ha
  pendimethalin alone (% control): 5%
Apera spica-venti; 240 g/ha
  pendimethalin alone (% control): 40%
Galium aparine [1]; 120 g/ha, Example 14
  pendimethalin alone (% control): 23%
Setaria viridis [2]; 480 g/ha, Example 14
  pendimethalin alone (% control): 40%

## Cc1nn(-c2cc(CC(Cl)C(=O)O)c(Cl)cc2F)c(=O)n1C(F)F (stereo not shown) [carfentrazone, reference compound]
Matricaria inodora; 1.88 g/ha
  carfentrazone alone (% control): 0%
Matricaria inodora; 15 g/ha
  carfentrazone alone (% control): 48%
Setaria viridis [2]; 1.88 g/ha
  carfentrazone alone (% control): 0%
Setaria viridis [2]; 15 g/ha
  carfentrazone alone (% control): 0%
Stellaria media [15]; 1.88 g/ha, Example 9
  carfentrazone alone (% control): 0%
